Data set [1] relates to RAW264.7. In words: Anti-inflammatory activity in mouse RAW264.7 cells assessed as inhibition of LPS-induced NO production pretreated with compounds followed by LPS stimulation incubated for 24 hrs by Griess assay. The class given is functional, cell-based. On the technique in general: The Griess reaction detects nitrite, a stable product of nitric oxide.
Data set [2] has as its system RAW264.7. In words: Growth inhibition of mouse RAW264.7 cells relative to control. The class given is cell-based.
Data set [3] deals with T1, Tyrosine-protein phosphatase non-receptor type 1 (Homo sapiens) (UniProt P18031).
T1 sequence (whole entry): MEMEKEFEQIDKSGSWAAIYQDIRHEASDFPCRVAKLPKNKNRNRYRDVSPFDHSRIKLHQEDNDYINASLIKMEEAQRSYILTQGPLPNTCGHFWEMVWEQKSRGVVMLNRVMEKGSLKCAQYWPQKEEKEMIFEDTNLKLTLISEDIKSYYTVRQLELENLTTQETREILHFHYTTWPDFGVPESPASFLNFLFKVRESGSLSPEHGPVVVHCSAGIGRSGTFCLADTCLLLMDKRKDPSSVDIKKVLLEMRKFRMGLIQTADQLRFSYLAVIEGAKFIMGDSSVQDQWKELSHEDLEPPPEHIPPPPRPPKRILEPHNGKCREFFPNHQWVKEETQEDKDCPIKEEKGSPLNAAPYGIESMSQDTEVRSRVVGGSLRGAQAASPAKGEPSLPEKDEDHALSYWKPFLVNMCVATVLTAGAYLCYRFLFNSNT
In words: Inhibition of recombinant human PTP1B expressed in Escherichia coli BL21 at 10 uM using […] as substrate […] for 5 mins followed by substrate addition measured after 10 mins relative to control.

Data set [4] concerns the target Xanthine dehydrogenase/oxidase (Homo sapiens, UniProt P47989). In words: Inhibition of xanthine oxidase (unknown origin) at 10 uM using xanthine as substrate incubated for 15 mins relative to control. As to conditions: 0.25 h.

The results in this text go back to ChEMBL document CHEMBL4334520, “Nonadride and Spirocyclic Anhydride Derivatives from the Plant Endophytic Fungus Talaromyces purpurogenus” (J Nat Prod, 2019).

pIC50: −log10 of the molar value.

Sequence of Xanthine dehydrogenase/oxidase (P47989 whole entry): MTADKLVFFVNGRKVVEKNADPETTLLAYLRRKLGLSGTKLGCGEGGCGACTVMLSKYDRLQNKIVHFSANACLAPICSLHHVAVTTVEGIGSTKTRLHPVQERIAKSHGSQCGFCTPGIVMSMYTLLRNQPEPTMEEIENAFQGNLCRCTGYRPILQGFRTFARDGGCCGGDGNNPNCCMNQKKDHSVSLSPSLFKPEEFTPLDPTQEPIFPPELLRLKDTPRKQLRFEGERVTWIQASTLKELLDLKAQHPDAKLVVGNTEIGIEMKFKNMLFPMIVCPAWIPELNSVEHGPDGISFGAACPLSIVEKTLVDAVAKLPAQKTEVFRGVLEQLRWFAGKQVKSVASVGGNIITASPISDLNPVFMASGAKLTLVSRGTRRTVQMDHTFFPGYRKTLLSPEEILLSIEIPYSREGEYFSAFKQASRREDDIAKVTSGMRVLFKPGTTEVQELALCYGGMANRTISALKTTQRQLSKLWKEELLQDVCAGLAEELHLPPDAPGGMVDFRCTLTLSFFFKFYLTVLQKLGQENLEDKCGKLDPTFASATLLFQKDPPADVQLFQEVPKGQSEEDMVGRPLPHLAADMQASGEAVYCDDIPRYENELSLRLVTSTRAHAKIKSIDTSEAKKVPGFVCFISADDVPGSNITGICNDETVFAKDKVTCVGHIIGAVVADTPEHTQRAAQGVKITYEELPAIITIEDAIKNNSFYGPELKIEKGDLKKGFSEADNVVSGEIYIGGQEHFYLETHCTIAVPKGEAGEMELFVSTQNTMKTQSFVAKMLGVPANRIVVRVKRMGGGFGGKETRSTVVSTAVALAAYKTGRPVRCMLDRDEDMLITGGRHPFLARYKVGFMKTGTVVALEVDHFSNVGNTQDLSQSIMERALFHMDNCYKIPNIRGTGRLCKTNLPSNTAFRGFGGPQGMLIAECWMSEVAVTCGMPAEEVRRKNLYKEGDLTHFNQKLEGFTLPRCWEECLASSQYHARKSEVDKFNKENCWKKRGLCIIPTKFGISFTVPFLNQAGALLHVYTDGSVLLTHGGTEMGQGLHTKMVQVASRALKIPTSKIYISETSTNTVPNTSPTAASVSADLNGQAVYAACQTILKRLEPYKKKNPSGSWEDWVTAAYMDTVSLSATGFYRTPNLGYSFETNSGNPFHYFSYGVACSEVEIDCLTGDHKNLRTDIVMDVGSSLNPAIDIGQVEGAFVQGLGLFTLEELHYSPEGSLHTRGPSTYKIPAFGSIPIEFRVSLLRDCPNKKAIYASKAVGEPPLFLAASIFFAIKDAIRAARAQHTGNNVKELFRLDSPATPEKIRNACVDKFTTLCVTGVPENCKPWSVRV

Usually pIC50 stands for the negative decadic logarithm of the IC50, by convention in mol/L. As for `CCCCCC[C@H](O)[C@@H]1/C(C(=O)O)=C(/C(=O)O)C[C@H]([C@@H](O)[C@H]2CC=CC(=O)O2)CC2=C(C(=O)OC2=O)[C@H]1O`, the pIC50 in data set [1] was 5.72. Also, the “growth inhibition (GI)” value in data set [2] is -14.5%. What is called inhibition is the change of the read-out against control, counted positive when it falls. Consider `CCCCCCC[C@@H](CC1=C(/C=C/CCC/C=C\CO)C(=O)OC1=O)C1=C(C)C(=O)OC1=O`, for which the inhibition in data set [3] is 76%.

In data set [4], `CCCCCC[C@H](O)[C@@H]1/C(C(=O)O)=C(/C(=O)O)C[C@H]([C@@H](O)[C@H](O)CCCC)CC2=C(C(=O)OC2=O)[C@H]1O` registered an inhibition at 10 µM of 67%.
